These results are taken from article PMC4737580 (Bioorganic & medicinal chemistry letters, 2010).

One series addresses furin (Homo sapiens, UniProt P09958). The series is described as follows: Furin inhibition, Ki from Dixon plots. It counts as biochemical.
The conditions of series [1]: general statement, no reference given; cited from earlier work.

Chain of furin (P09958 108-794): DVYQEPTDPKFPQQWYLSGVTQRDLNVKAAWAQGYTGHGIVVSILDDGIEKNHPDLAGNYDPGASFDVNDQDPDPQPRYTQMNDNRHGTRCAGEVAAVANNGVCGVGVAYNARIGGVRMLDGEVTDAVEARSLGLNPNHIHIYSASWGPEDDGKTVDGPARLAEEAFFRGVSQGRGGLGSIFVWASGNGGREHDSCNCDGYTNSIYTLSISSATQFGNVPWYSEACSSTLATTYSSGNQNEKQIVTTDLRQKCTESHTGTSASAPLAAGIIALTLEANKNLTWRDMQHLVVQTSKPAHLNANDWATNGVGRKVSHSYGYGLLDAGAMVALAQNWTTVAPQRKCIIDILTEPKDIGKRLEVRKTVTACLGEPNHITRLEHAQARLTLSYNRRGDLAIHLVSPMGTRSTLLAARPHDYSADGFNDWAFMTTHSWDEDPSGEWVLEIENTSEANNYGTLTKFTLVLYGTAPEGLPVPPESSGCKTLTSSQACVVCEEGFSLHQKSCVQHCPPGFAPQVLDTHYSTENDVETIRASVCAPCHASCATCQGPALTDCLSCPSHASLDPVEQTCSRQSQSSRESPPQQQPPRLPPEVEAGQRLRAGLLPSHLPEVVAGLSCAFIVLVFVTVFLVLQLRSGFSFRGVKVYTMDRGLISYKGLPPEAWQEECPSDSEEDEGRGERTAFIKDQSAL

The term Ki denotes a dissociation constant, usually derived from enzyme kinetics or from competition with a known ligand. As to `N=C(N)N/N=C/c1ccccc1OCc1ccc(Cl)cc1` [Compound 2], the affinity at furin (Ki, Ki values from Dixon plots) corresponds to a Ki of 25 µM.

On to `C/C(=N\NC(=N)N)c1cc(NC(=O)CCCNC(=N)N)cc(/C(C)=N/NC(=N)N)c1` [Compound 17], for which the “fold improved Ki compared to 1” value at furin (relative to compound 1) was “approximately 4 fold”.

Consider `N=C(N)N` [guanidine], for which the pKa entry in series [1] is on record as “approximately 13”.
